Source: ChEMBL document CHEMBL3714747, “Imidazothiadiazole and imidazopyrazine derivatives as protease activated receptor 4 (par4) inhibitors for treating platelet aggregation” (2015)

Columns and labels:
Cynomolgus monkey [1] = assay: Antithrombotic activity in cynomolgus monkey electrolytic injury-induced carotid artery thrombosis model assessed as reduction in thrmbosis-induced occlusion at 0.02 mg/kg, po dosed 1 to 2 hrs before test; assay type: functional; settings: Macaca fascicularis
Cynomolgus monkey [2] = assay: Antithrombotic activity in cynomolgus monkey electrolytic injury-induced carotid artery thrombosis model assessed as reduction in thrmbosis-induced occlusion at 0.1 mg/kg, po dosed 1 to 2 hrs before test; assay type: functional; settings: Macaca fascicularis
Cynomolgus monkey [3] = assay: (§1) Antithrombotic activity in cynomolgus monkey electrolytic injury-induced carotid artery thrombosis model assessed as reduction in thrmbosis-induced occlusion at […], po dosed 1 to 2 hrs before test; assay type: functional; settings: Macaca fascicularis
Cynomolgus monkey [4] = assay: Antithrombotic activity in cynomolgus monkey electrolytic injury-induced carotid artery thrombosis model assessed as reduction in thrmbosis-induced occlusion at 0.5 mg/kg, po dosed 1 to 2 hrs before test; assay type: functional; settings: Macaca fascicularis
Cynomolgus monkey [5] = assay: as §1; assay type: functional; settings: Macaca fascicularis; remark: listed apart in the source
[6] = target: T1, Proteinase-activated receptor 4 (Homo sapiens, UniProt Q96RI0); assay: Antagonist activity against human PAR4 expressed in HEK293 cells assessed as reduction in H-Ala-Phe(4-F)-Pro-Gly-Trp-Leu-Val-Lys-Asn-Gly-NH2-induced intracellular calcium mobilization incubated for 30 mins by FLIPR assay; assay type: functional, cell-based
T1 sequence (Q96RI0 whole entry): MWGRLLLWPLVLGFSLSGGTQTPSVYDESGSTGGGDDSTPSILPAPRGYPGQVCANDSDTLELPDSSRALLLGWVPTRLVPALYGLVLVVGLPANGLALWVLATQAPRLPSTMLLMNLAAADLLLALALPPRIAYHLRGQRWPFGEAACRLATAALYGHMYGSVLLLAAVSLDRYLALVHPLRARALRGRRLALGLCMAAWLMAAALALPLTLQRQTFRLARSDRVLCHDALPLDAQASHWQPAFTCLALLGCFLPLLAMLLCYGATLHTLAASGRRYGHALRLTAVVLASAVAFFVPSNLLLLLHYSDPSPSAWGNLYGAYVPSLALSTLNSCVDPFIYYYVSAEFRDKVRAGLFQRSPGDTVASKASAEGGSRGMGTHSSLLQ

| EC50 [6] [nM] | SMILES | inhibition in vivo at 0.02 mg/kg (Cynomolgus monkey [1]) [%] | inhibition in vivo at 0.1 mg/kg (Cynomolgus monkey [2]) [%] | inhibition in vivo at […] (Cynomolgus monkey [3]) [%] | inhibition in vivo at 0.5 mg/kg (Cynomolgus monkey [4]) [%] | inhibition in vivo at […] (Cynomolgus monkey [5]) [%] |
| --- | --- | --- | --- | --- | --- | --- |
| – | COc1cc(OCc2csc(-c3ccccc3)n2)c2cc(-c3cn4nc(OC)sc4n3)oc2c1 | 19 | 24 | 46 | 47 | 51 |
| 0.42 | COc1cc(OCc2csc(N3CCN(c4cnccn4)CC3)n2)c2cc(-c3cn4nc(C)ccc4n3)oc2c1 | – | – | – | – | – |
